From patent US20260258064A1 (SIRONAX LTD., priority 2023, published 2026) come the findings set out here.

Broadly, the IC50 is the concentration that gives 50% inhibition.

The target in this test is T1, SARM1 (50-724) (Homo sapiens, UniProt Q6SZW1).
T1 construct: Purified SARM1 (50-724) with a final concentration of 2 nM was pre-incubated with a test compound
T1 sequence (Q6SZW1 50-724): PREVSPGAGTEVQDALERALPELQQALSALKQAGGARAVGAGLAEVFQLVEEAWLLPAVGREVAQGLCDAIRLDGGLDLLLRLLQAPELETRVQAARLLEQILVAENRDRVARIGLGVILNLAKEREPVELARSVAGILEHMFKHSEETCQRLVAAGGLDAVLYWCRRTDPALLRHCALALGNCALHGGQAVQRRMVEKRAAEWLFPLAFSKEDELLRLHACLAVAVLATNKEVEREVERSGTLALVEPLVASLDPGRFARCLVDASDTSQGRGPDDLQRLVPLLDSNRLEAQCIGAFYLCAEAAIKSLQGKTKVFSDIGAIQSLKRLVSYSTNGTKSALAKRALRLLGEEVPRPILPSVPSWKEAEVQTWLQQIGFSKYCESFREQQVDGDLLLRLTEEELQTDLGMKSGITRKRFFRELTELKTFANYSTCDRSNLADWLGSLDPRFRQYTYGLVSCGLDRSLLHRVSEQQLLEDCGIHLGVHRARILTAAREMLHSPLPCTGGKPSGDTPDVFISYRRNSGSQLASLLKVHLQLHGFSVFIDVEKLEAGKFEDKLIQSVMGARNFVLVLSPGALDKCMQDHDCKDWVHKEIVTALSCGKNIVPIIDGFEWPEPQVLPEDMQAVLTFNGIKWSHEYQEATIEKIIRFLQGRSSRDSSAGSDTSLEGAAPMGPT
Description: SARM1 (50-724) enzymatic assay (LC-MS/MS). Format: biochemical. Particulars: Purified SARM1 (50-724) 2 nM, NMN as activator, NAD+ as substrate, 1 h at room temperature, read-out: IC50 (SARM1 inhibitory activity). In short, it runs like this:
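Human SARM1 (50-724), 2 nM, pre-incubated 15 min at room temperature with compound in Dulbecco's PBS. Reaction started with 200 µM NMN (activator) plus […] NAD^+ substrate, run 1 h at room temperature, quenched with 70% acetonitrile. Turnover quantified by LC-MS/MS; IC50 reported.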
Regarding `OC1(c2ccc3[nH]c(-c4nncn4-c4ccc(F)c(F)c4Cl)nc3c2)CC1` [Example 134], the IC50 is at most 100 nM.
The result for `N#CC1(c2ccc3[nH]c(-c4nncn4-c4ccc(F)c(F)c4Cl)nc3c2)CC1` [Example 135] reads at most 100 nM; that for `O=C1CCCN1c1ccc2[nH]c(-c3nncn3-c3cccc(Cl)c3Cl)nc2c1` [Example 137, 1-(2-(4-(2,3-dichlorophenyl)-4H-1,2,4-triazol-3-yl)-1H-benzo[d]imidazol-5-yl)pyrrolidin-2-one], over 1000 nM; that for `CC(C)Oc1ccc2[nH]c(-c3nncn3-c3cccc(Cl)c3Cl)nc2c1` [compound 109], at most 100 nM.
